Source: publication PMC2156105 (The Journal of biological chemistry, 2007)

Columns and labels:
[1] = biological target: AMP-activated protein kinase (AMPK), native rat liver αβγ complex (γ1 subunit) (Rattus norvegicus, UniProt P80385); test: kinase activity assay of purified rat liver AMPK; type: biochemical
[2] = biological target: AMPK γ2 subunit (Bateman domains) (Homo sapiens, UniProt Q9UGJ0); test: scintillation proximity assay, displacement of [3H]AMP by unlabelled AMP; type: binding
AMPK γ2 subunit (Bateman domains), sequence (Q9UGJ0 275-562 limits assumed): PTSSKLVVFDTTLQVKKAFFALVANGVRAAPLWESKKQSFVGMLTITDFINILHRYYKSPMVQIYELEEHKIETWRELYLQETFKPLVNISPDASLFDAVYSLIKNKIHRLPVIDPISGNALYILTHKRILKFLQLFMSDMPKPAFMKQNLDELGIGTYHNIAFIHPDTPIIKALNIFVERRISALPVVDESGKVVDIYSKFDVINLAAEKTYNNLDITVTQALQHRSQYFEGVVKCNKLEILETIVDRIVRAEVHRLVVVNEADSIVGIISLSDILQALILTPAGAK

AMP-activated protein kinase (AMPK), native rat liver αβγ complex (γ1 subunit), sequence (P80385 whole entry, the tested form may be a part): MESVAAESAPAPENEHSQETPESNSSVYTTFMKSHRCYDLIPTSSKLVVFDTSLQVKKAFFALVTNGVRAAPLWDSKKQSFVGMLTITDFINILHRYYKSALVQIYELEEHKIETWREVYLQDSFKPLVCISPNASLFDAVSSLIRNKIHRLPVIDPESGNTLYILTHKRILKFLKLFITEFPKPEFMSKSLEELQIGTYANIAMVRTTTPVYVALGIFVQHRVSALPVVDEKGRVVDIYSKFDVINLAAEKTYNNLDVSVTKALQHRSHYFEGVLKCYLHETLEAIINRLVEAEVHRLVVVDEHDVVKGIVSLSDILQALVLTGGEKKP
AMP-activated protein kinase (AMPK), native rat liver αβγ complex (γ1 subunit), sequence (P54645 whole entry partner, the tested form may be a part): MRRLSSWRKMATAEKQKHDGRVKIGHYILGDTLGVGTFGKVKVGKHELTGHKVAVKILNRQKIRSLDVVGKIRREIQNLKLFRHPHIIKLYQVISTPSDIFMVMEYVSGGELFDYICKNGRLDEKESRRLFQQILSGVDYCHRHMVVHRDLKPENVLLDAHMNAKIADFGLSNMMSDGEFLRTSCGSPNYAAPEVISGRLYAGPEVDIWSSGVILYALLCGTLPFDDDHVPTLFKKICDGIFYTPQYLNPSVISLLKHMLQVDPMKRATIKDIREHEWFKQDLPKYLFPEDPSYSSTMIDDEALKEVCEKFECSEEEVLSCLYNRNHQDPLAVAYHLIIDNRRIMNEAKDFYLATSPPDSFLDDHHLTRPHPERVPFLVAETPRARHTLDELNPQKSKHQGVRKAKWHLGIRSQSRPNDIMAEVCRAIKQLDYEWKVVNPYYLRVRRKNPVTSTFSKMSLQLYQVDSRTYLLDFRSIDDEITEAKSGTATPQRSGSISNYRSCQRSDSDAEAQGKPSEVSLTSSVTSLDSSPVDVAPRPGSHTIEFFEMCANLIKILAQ
AMP-activated protein kinase (AMPK), native rat liver αβγ complex (γ1 subunit), sequence (Q09137 whole entry partner, the tested form may be a part): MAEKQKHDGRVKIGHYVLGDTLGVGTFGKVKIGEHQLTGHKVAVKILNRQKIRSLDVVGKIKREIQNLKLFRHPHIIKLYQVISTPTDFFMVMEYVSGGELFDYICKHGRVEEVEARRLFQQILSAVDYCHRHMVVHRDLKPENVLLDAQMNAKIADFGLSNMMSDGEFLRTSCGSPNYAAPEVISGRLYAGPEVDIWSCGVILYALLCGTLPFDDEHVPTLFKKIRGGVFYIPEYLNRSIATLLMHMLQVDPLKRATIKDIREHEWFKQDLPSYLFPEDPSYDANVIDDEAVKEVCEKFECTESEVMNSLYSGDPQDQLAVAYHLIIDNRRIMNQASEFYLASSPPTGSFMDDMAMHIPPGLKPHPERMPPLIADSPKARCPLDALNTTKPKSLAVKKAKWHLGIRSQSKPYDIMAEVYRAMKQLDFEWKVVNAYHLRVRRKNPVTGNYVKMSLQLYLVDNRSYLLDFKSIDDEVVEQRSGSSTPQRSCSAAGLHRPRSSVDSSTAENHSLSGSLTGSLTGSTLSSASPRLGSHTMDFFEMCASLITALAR
AMP-activated protein kinase (AMPK), native rat liver αβγ complex (γ1 subunit), sequence (P80386 2-270 partner): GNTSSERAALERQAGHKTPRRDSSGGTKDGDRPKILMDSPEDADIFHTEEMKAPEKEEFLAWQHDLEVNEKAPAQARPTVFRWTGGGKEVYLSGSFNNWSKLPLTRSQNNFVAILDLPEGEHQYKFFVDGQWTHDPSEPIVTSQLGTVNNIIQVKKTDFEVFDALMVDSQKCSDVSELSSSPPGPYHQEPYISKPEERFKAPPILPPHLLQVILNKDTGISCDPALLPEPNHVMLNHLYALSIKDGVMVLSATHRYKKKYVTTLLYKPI

In the case of `Nc1ncnc2c1ncn2[C@@H]1O[C@H](COP(=O)(O)O)[C@@H](O)[C@H]1O` [AMP], the EC50 [1] is reported as 6 ± 3 µM and the Kd [2] is reported as 80 ± 15 µM.
